Experimental findings from patent US9849099B2, “Antimicrobial compounds, compositions and methods of use thereof” (WISCONSIN ALUMNI RESEARCH FOUNDATION, priority 2014, dated 2017) are described below.

Each structure is given as a SMILES string. Values after ≈ are worked out from the molar mass of the structure shown. “Also recorded” adds a separate entry of the source. Read-outs that look alike come from different tables or passages of the source. Where only a bound is given, the exact number is not on record here.

What all share (type): cell-based
The test system of test [1] is broad panel of human pathogens. The test can be described thus: MIC against the panel of pathogens. The note with it: panel of pathogens. The protocol:
(§1) Luria-Bertani (LB) media (10 g/L tryptone, 10 g/L NaCl, 5 g/L yeast extract, pH 7.0) was used to grow all bacterial strains, except Streptococcus pyogenes. Streptococcus pyogenes was grown in Mueller-Hinton broth containing 5% (v/v) sheep blood. All bacterial cultures were grown at 37° C. All the E. coli strains were grown while shaking at 200 rpm, while clinical pathogens were incubated without shaking.
(§2) The MIC of all the strains was determined in LB media except Streptococcus pyogenes, which was grown in Mueller-Hinton media containing 5% (v/v) sheep blood. The micro-dilution method was utilized in 96-well clear flat-bottom plates (100 μL/well) according to the CLSI guidelines. All strains were grown at 37° C. for 16-18 hours in presence of various concentrations of compound. The MIC was determined by a visual inspection and experiments were performed in triplicate.

A further test deals with Pseudomonas aeruginosa. Briefly: MIC micro-dilution. The protocol: as §1, §2
Background: Dilution methods test growth across graded concentrations, often in twofold steps.

A further test deals with E. coli BW25113 ΔtolC. Briefly: MIC micro-dilution. The conditions noted are these: Escherichia coli, LB media, 37° C., 16-18 hours. The protocol:
as §1, §2

A further test deals with Klebsiella pneumoniae. The test can be described thus: MIC micro-dilution. The protocol: as §1, §2
The next test deals with Shigella boydii. Briefly: MIC micro-dilution. The conditions noted are these: LB media, 37° C., 16-18 hours, read-out: MIC. As for the experimental part:
as §1, §2

The next test has as its system Morganella morganii. The test can be described thus: MIC micro-dilution. As for the experimental part: as §1, §2
In the next test the test system is Salmonella typhimurium. Briefly: MIC micro-dilution. The note with it: Salmonella enterica. The protocol:
as §1, §2

The subject of a further test is Edwardsiella tarda. Briefly: MIC micro-dilution. The protocol:
as §1, §2

The next test deals with Staphylococcus aureus. Briefly: MIC micro-dilution. The protocol: as §1, §2
The next test concerns Vibrio cholerae. The test can be described thus: MIC micro-dilution. As for the experimental part: as §1, §2
For another test, the system named is Enterobacter aerogenes. Briefly: MIC micro-dilution. The conditions noted are these: Klebsiella aerogenes. As for the experimental part:
as §1, §2

A further test has as its system Acinetobacter baumannii. Briefly: MIC micro-dilution. The protocol: as §1, §2
Another test concerns E. coli BW25113. The test can be described thus: MIC micro-dilution. The conditions noted are these: Escherichia coli, LB media, 37° C., 16-18 hours. As for the experimental part:
as §1, §2

A further test has as its system Bacillus subtilis 168. Briefly: MIC micro-dilution. The note with it: Bacillus subtilis, 168. As for the experimental part:
as §1, §2

Setting [2] is: LB media, 37° C., 16-18 hours, read-out: MIC.

In the case of `NCCc1c[nH]c2ccc(OCCCCCCCc3ccccc3)cc12` [Compound 11], in [1], the “MICs compared with Compound 1” value was “either the same or 2× different from Compound 1; also recorded: either the same or 2-fold different from 1”. Also, the MIC in the test with Pseudomonas aeruginosa (setting [2]) is 56 µg/mL (≈ 160 µM); with E. coli BW25113 ΔtolC, 1.8 µg/mL (≈ 5.14 µM); in the test on Klebsiella pneumoniae (setting [2]) it was 7 µg/mL (≈ 20 µM); in the test with Shigella boydii, 7 µg/mL (≈ 20 µM); with Morganella morganii (setting [2]), more than 112 µg/mL; in the test with Salmonella typhimurium (Salmonella typhimurium, LB media, 37° C., 16-18 hours, read-out: MIC) it was 7 µg/mL (≈ 20 µM). For the same compound, the MIC in the test on Edwardsiella tarda (setting [2]) worked out at 28 µg/mL (≈ 79.9 µM); in the test with Staphylococcus aureus (setting [2]), 3.5 µg/mL (≈ 9.99 µM); in the test with Vibrio cholerae it was 7 µg/mL (≈ 20 µM); in the test on Enterobacter aerogenes (Enterobacter aerogenes, LB media, 37° C., 16-18 hours, read-out: MIC) it was 14 µg/mL (≈ 39.9 µM); with Acinetobacter baumannii (setting [2]), 7 µg/mL (≈ 20 µM); in the test on E. coli BW25113 (E. coli BW25113, read-out: MIC) it was 14 µg/mL (≈ 39.9 µM).
For the compound `CCCCCCCCCOc1ccc2[nH]cc(CC[N+](C)(C)C)c2c1` [Compound 15], the minimal inhibitory concentration (MIC) is 52 µg/mL in the test with Pseudomonas aeruginosa; 6.5 µg/mL in the test with E. coli BW25113 ΔtolC; 26 µg/mL in the test on Klebsiella pneumoniae; 52 µg/mL in the test with Bacillus subtilis 168; 26 µg/mL in the test on Shigella boydii; more than 104 µg/mL against Morganella morganii. The MIC was 26 µg/mL with Salmonella typhimurium (TYPHIMURIUM); 26 µg/mL with Edwardsiella tarda; 6.5 µg/mL against Staphylococcus aureus; more than 104 µg/mL against Vibrio cholerae; 52 µg/mL in the test on Enterobacter aerogenes; 52 µg/mL in the test on Acinetobacter baumannii. Further, in the test with E. coli BW25113 (BW25113, E. coli BW25113), the MIC is 52 µg/mL.
For `CCCCCCCCCOc1cccc(CCN)c1` [Compound 16], the MIC amounted to 21 µg/mL (≈ 79.7 µM) in the test on Pseudomonas aeruginosa; 2.6 µg/mL (≈ 9.87 µM) against E. coli BW25113 ΔtolC; 5.3 µg/mL (≈ 20.1 µM) with Klebsiella pneumoniae; 0.66 µg/mL (≈ 2.51 µM) against Bacillus subtilis 168; 5.3 µg/mL (≈ 20.1 µM) with Shigella boydii; 11 µg/mL (≈ 41.8 µM) in the test with Morganella morganii. For the same compound, the minimal inhibitory concentration (MIC) against Salmonella typhimurium (TYPHIMURIUM), with Edwardsiella tarda, against Staphylococcus aureus, against Vibrio cholerae, in the test with Enterobacter aerogenes and with Acinetobacter baumannii was 5.3 µg/mL (≈ 20.1 µM) in each case. In the test on E. coli BW25113 (BW25113, E. coli BW25113), this compound gave an MIC of 5.3 µg/mL (≈ 20.1 µM).

As usually defined, the MIC is the lowest concentration found to suppress growth.
